In patent US20090298897A1, “Treatment of Inflammatory Disorders With Triazole Compounds” (priority 2006, published 2009):
Where “and” joins values, the source holds several entries; their conditions need not be identical. Identical values can stand only once. Entries after “also recorded” stand apart in the source; their conditions may differ.

What was measured:
[1] = test system: SLS-induced irritant dermatitis; assay: Irritant dermatitis induced by sodium lauryl sulfate (SLS); format: in vivo, human; conditions: 0.35% gel, 4 days pre-treatment and 5 days during 2% SLS; healthy volunteers
Procedure: Rambazole (0.35%) gel was applied as a pre-treatment during four days. Inflammation was induced by applying 2% SLS during 2 hours in rings on the arm of twelve healthy volunteers once a day for five days. Rambazole (0.35%) gel was applied during the five days of induced inflammation. Skin reactions of non-treated and rambazole gel-treated skin sites were assessed 24 hours after each application with SLS and 72 hours after the last SLS application (visual scoring of redness, chromametry, TEWL).

[2] = test system: IL-1α; assay: Expression of IL-1α, rambazole compared to retinoic acid (FIG. 2); format: in vivo, human
Excerpt: Also unexpectedly, rambazole-treated lesions (such as, for example, psoriatic lesions) continue to improve and show reduced inflammatory patterns for at least 3 months after discontinuation of treatment. Further, in contrast with retinoids such as isotretinoin, rambazole-treated inflammatory lesions responded rapidly within the first 4 weeks of treatment. This finding supports an antiinflammatory action for rambazole in addition to the typical effects on proliferation and differentiation.

[3] = test system: IL-12p40; assay: IL-12 secretion by activated monocytes (IL-12p40 ELISA); format: cell-based, human; conditions: monocytes activated with Zymosan or 19 kDa lipoprotein for 18 h
Procedure: Peripheral blood mononuclear cells (PBMC) were isolated from healthy donors by density gradient centrifugation on Ficoll-Hypaque Plus and monocytes were selected by adherence. After overnight culture in RPMI 1640 supplemented with […] FBS, monocytes were activated with Zymosan or 19 kDa lipoprotein for 18 h, and IL-12p40 was measured in the supernatant by ELISA.

[4] = test system: skin of volunteers, UVB; assay: Effects of topical 0.35% rambazole on UVB-induced inflammation (chromametry); format: in vivo, human; conditions: topical 0.35% for 9 days, then 5 days UVB
Excerpt: In an investigator-blinded, placebo-controlled study, topical 0.35% rambazole was applied to the skin of volunteers for 9 days, followed by 5 days of induction of inflammation with UVB. Adapalene was used in the study as a standard anti-inflammatory agent.

[5] = test system: moderate to severe plaque type psoriasis; assay: Treatment of psoriasis with oral rambazole (PASI score); format: in vivo, human; conditions: for % PASI Score from Baseline: individual subjects
Procedure: Seventeen patients with a Psoriasis Area and Severity Index (PASI) score of at least 5 (moderate to severe plaque type psoriasis) received a daily oral dose of 1 mg of rambazole. The evolution of the PASI score was monitored after 1, 2, 4 and 8 weeks of treatment and at the end of a 2-week follow-up period. […] Biopsies from lesions were taken and surface markers were analyzed.

[6] = test system: IP-10; assay: IP-10 expression and secretion in IFNγ-activated normal human epidermal keratinocytes (ELISA); format: cell-based; conditions: 50 U/mL IFNγ; rambazole 10^-5 M to 3×10^-8 M for 18 hours
Procedure: Fourth passage normal human epidermal keratinocytes were plated at 2,000 cells/well in low Ca^2+ KSFM. After 3 days incubation to 60% confluence, the medium was removed and cells were stimulated with 50 U/mL IFNγ and incubated with rambazole ranging from 10^-5 M to 3×10^-8 M for 18 hours. Interferon-inducible protein (IP-10) expression in the culture medium was determined using the IP-10 sandwich-type ELISA and all data were corrected for cell count. Values are represented as mean percentages±SD (n=4) versus drug solvent control.

[7] = test system: mild to moderate acne vulgaris; assay: Treatment of acne vulgaris with topical rambazole; format: in vivo, human; conditions: after 12 weeks; daily topical 0.35% rambazole
[8] = test system: moderate to severe facial acne vulgaris; assay: Treatment of acne vulgaris with oral rambazole (lesion counts); format: in vivo, human; conditions: for Table 3 (untitled, lesion count), Max. / Table 3 (untitled, lesion count), Mean / Table 3 (untitled, lesion count), Median / Table 3 (untitled, lesion count), Min. / Table 6 (untitled, summary of Table 5 lesion count), Max. / Table 6 (untitled, summary of Table 5 lesion count), Mean / Table 6 (untitled, summary of Table 5 lesion count), Median / Table 6 (untitled, summary of Table 5 lesion count), Min. / Table 4 (untitled, change of Table 3 count versus Visit 2), Max. / Table 4 (untitled, change of Table 3 count versus Visit 2), Mean / Table 4 (untitled, change of Table 3 count versus Visit 2), Median / Table 4 (untitled, change of Table 3 count versus Visit 2), Min. / Table 7 (untitled, change of Table 6 count versus Visit 2), Max. / Table 7 (untitled, change of Table 6 count versus Visit 2), Mean / Table 7 (untitled, change of Table 6 count versus Visit 2), Median / Table 7 (untitled, change of Table 6 count versus Visit 2), Min.: N 16; for Table 5 (untitled, lesion count per subject): individual subjects; for No. of Responders (≧50% reduction in inflammatory lesions): of 16 subjects
Procedure: Sixteen patients with moderate to severe facial acne vulgaris received a daily oral dose of 1 mg of rambazole for 12 weeks. […] The average lesion reduction was 79%. See Tables 3 through 7 for additional individual data. See FIGS. 5 and 6, respectively, for a comparison of the response to treatment of inflammatory lesions versus non-inflammatory lesions.

[9] = test system: Interleukin-1 (IL-1); assay: Expression of IL-1 in the skin of healthy volunteers (real-time PCR); format: in vivo, human
Procedure: In this randomized, double-blind, left-right, placebo-controlled trial, the expression of Interleukin-1 (IL-1) in the skin of 15 healthy subjects was evaluated after a once daily application of rambazole gel at two different concentrations (0.35% or 0.07%) on intact skin for 9 days. The IL-1 biomarker was analyzed with real-time PCR.

## CCC(CC)C(c1ccc(Nc2nc3ccccc3s2)cc1)n1cncn1 (stereo not drawn) [rambazole]
[1]
  inflammatory response induced by application of SLS (visual scoring of redness, chromametry, TEWL): inhibits the inflammatory response
[2]
  expression of IL-1: decrease the expression of IL-1
[3]
  IL-12 secretion (IL-12p40 in supernatant): dose-dependently suppressed; also recorded: suppression of IL-12
[4]
  phototoxicity (chromametry): no indication of phototoxicity
[5]; daily oral dose 1 mg, psoriasis patients
  side effects / tolerability: mild to moderate; also recorded: well tolerated
[5]; rambazole-treated lesions such as psoriatic lesions
  time lesions continue to improve and show reduced inflammatory patterns after discontinuation of treatment: at least 3 months
[5]; subjects that completed 8 weeks of treatment, daily oral dose 1 mg
  mean reduction in PASI score: 51.4%
[5]; week 1, 1 mg oral daily
  % PASI Score from Baseline: 100% (4×) and 93% and 81% and 88% and 80% and 92% (2×) and 113% and 87% and 97% and 89% (2×) and 79% and 108%
[5]; week 2, 1 mg oral daily
  % PASI Score from Baseline: 99% and 86% (2×) and 95% and 79% and 108% and 75% and 92% (2×) and 150% and 96% and 88% and 89% and 77% and 98% and 83% and 117%
[5]; week 4, 1 mg oral daily
  % PASI Score from Baseline: 99% and 88% and 81% and 57% and 84% (2×) and 78% and 104% and 85% and 97% and 70% and 69% and 80% and 60% and 107% and 206%
[5]; week 8, 1 mg oral daily
  % PASI Score from Baseline: 96% and 55% and 109% and 47% and 67% and 73% and 62% and 79% and 43% and 35% and 34% and 41% and 86% and 97%
[5]; week 10 (end of 2-week follow-up)
  % PASI Score from Baseline: 81% and 27% and 105% and 51% and 36% and 49% and 45% and 37% and 73% and 52% and 4% and 34% and 28% and 70% and 87%
[6]
  IP-10 expression and secretion: dose-dependently down regulated
[7]
  reduction in global assessment score: approximately 40%
[8]; 1 mg oral daily for 12 weeks
  serious adverse effects: No serious adverse effects were reported
[8]; Visit No. 2
  Table 3 (untitled, lesion count), Max.: 170
  Table 3 (untitled, lesion count), Mean: 56.2
  Table 3 (untitled, lesion count), Median: 48.0
  Table 3 (untitled, lesion count), Min.: 15
  Table 6 (untitled, summary of Table 5 lesion count), Max.: 199
  Table 6 (untitled, summary of Table 5 lesion count), Mean: 81.3
  Table 6 (untitled, summary of Table 5 lesion count), Median: 87.0
  Table 6 (untitled, summary of Table 5 lesion count), Min.: 22
  Table 5 (untitled, lesion count per subject): 22 and 46 and 63 and 25 and 23 and 93 (2×) and 72 and 49 and 89 and 110 and 199 and 121 and 95 and 115 and 85
[8]; Visit No. 4
  Table 3 (untitled, lesion count), Max.: 77
  Table 3 (untitled, lesion count), Mean: 34.4
  Table 3 (untitled, lesion count), Median: 34.5
  Table 3 (untitled, lesion count), Min.: 3
  Table 4 (untitled, change of Table 3 count versus Visit 2), Max.: 15
  Table 4 (untitled, change of Table 3 count versus Visit 2), Mean: −21.8
  Table 4 (untitled, change of Table 3 count versus Visit 2), Median: −10.0
  Table 4 (untitled, change of Table 3 count versus Visit 2), Min.: −159
  Table 6 (untitled, summary of Table 5 lesion count), Max.: 122
  Table 6 (untitled, summary of Table 5 lesion count), Mean: 51.4
  Table 6 (untitled, summary of Table 5 lesion count), Median: 49.5
  Table 6 (untitled, summary of Table 5 lesion count), Min.: 3
  Table 7 (untitled, change of Table 6 count versus Visit 2), Max.: 10
  Table 7 (untitled, change of Table 6 count versus Visit 2), Mean: −29.9
  Table 7 (untitled, change of Table 6 count versus Visit 2), Median: −17.5
  Table 7 (untitled, change of Table 6 count versus Visit 2), Min.: −159
  Table 5 (untitled, lesion count per subject): 11 and 3 and 12 and 30 and 21 and 71 and 58 and 59 and 80 and 45 and 89 and 40 and 48 and 82 and 122 and 51
[8]; Visit No. 5
  Table 3 (untitled, lesion count), Max.: 94
  Table 3 (untitled, lesion count), Mean: 26.4
  Table 3 (untitled, lesion count), Median: 27.0
  Table 3 (untitled, lesion count), Min.: 1
  Table 4 (untitled, change of Table 3 count versus Visit 2), Max.: 19
  Table 4 (untitled, change of Table 3 count versus Visit 2), Mean: −29.8
  Table 4 (untitled, change of Table 3 count versus Visit 2), Median: −22.0
  Table 4 (untitled, change of Table 3 count versus Visit 2), Min.: −142
  Table 6 (untitled, summary of Table 5 lesion count), Max.: 146
  Table 6 (untitled, summary of Table 5 lesion count), Mean: 39.5
  Table 6 (untitled, summary of Table 5 lesion count), Median: 40.5
  Table 6 (untitled, summary of Table 5 lesion count), Min.: 1
  Table 7 (untitled, change of Table 6 count versus Visit 2), Max.: 31
  Table 7 (untitled, change of Table 6 count versus Visit 2), Mean: −41.8
  Table 7 (untitled, change of Table 6 count versus Visit 2), Median: −45.0
  Table 7 (untitled, change of Table 6 count versus Visit 2), Min.: −140
  Table 5 (untitled, lesion count per subject): 9 and 1 and 4 (2×) and 2 (2×) and 48 and 64 and 42 and 39 and 33 and 80 and 59 and 55 and 44 and 146
[8]; Visit No. 6
  Table 3 (untitled, lesion count), Max.: 37
  Table 3 (untitled, lesion count), Mean: 12.8
  Table 3 (untitled, lesion count), Median: 13.5
  Table 3 (untitled, lesion count), Min.: 0
  Table 4 (untitled, change of Table 3 count versus Visit 2), Max.: −12
  Table 4 (untitled, change of Table 3 count versus Visit 2), Mean: −43.4
  Table 4 (untitled, change of Table 3 count versus Visit 2), Median: −34.0
  Table 4 (untitled, change of Table 3 count versus Visit 2), Min.: −165
  Table 6 (untitled, summary of Table 5 lesion count), Max.: 65
  Table 6 (untitled, summary of Table 5 lesion count), Mean: 22.6
  Table 6 (untitled, summary of Table 5 lesion count), Median: 26.0
  Table 6 (untitled, summary of Table 5 lesion count), Min.: 0
  Table 7 (untitled, change of Table 6 count versus Visit 2), Max.: −22
  Table 7 (untitled, change of Table 6 count versus Visit 2), Mean: −58.6
  Table 7 (untitled, change of Table 6 count versus Visit 2), Median: −58.5
  Table 7 (untitled, change of Table 6 count versus Visit 2), Min.: −165
  Table 5 (untitled, lesion count per subject): 0 (2×) and 1 (2×) and 3 (2×) and 25 and 37 and 22 and 34 (2×) and 29 and 41 and 40 and 27 and 65
[8]; Visit No. 7
  Table 3 (untitled, lesion count), Max.: 56
  Table 3 (untitled, lesion count), Mean: 13.3
  Table 3 (untitled, lesion count), Median: 8.0
  Table 3 (untitled, lesion count), Min.: 0
  Table 4 (untitled, change of Table 3 count versus Visit 2), Max.: −14
  Table 4 (untitled, change of Table 3 count versus Visit 2), Mean: −42.9
  Table 4 (untitled, change of Table 3 count versus Visit 2), Median: −35.0
  Table 4 (untitled, change of Table 3 count versus Visit 2), Min.: −159
  Table 6 (untitled, summary of Table 5 lesion count), Max.: 71
  Table 6 (untitled, summary of Table 5 lesion count), Mean: 21.3
  Table 6 (untitled, summary of Table 5 lesion count), Median: 13.5
  Table 6 (untitled, summary of Table 5 lesion count), Min.: 0
  Table 7 (untitled, change of Table 6 count versus Visit 2), Max.: −22
  Table 7 (untitled, change of Table 6 count versus Visit 2), Mean: −59.9
  Table 7 (untitled, change of Table 6 count versus Visit 2), Median: −52.5
  Table 7 (untitled, change of Table 6 count versus Visit 2), Min.: −178
  Table 5 (untitled, lesion count per subject): 0 (2×) and 4 and 2 and 1 and 5 and 38 and 25 and 39 and 6 and 35 and 21 and 71 and 31 and 60 and 3
[8]; Week 4, 1 mg oral daily
  Percent Responders (≧50% reduction in inflammatory lesions): 31%
[8]; Week 4
  No. of Responders (≧50% reduction in inflammatory lesions): 5
[8]; Week 8, 1 mg oral daily
  Percent Responders (≧50% reduction in inflammatory lesions): 56%
[8]; Week 8
  No. of Responders (≧50% reduction in inflammatory lesions): 9
[8]; Week 12, 1 mg oral daily
  Percent Responders (≧50% reduction in inflammatory lesions): 100%
[8]; Week 12
  No. of Responders (≧50% reduction in inflammatory lesions): 16
[8]; Week 16 (follow-up)
  Percent Responders (≧50% reduction in inflammatory lesions): 88%
  No. of Responders (≧50% reduction in inflammatory lesions): 14
[8]; after 12 weeks, 1 mg oral daily
  average lesion reduction: 79%
[8]; rambazole-treated inflammatory lesions, in contrast with retinoids such as isotretinoin
  time within which inflammatory lesions responded: ≤ 4 weeks
[9]; 0.35% rambazole, during one day after 8 days of treatment
  skin reaction reported by one subject: mild itching
[9]; gel 0.35% or 0.07% once daily
  local skin reactions during 9 days of treatment: no itching, irritating, stinging, burning or vesiculation occurred
[9]; gel 0.35% or 0.07% once daily on intact skin for 9 days, healthy subjects
  IL-1 expression in skin: dose-dependently decrease
